Test results as given in publication PMC3402541, “Guanidylation and Tail Effects in Cationic Antimicrobial Lipopeptoids” (PLoS ONE, 2012).
In brackets after ≈: the same amount, converted by molar mass. Where a SMILES comes first, the peptide text is derived from it. [ ]: non-standard residue; d: D form. The star is where a group is joined. Palmitoyl = CCCCCCCCCCCCCCCC(=O)*; Nlys = NCCCCNCC(=O)O

Tests used:
ovine erythrocytes = experiment: Haemolytic assay; assay type: cell-based, sheep; settings: ovine erythrocytes in Tris buffered saline, 30 minutes, absorbance of supernatant at 540 nm
Procedure, shortened: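 Washed sheep erythrocytes in Tris-buffered saline exposed to compound (50 μg/mL–1 mg/mL; final 4.08 x 10^8 cells/mL) for 30 min. After centrifugation, supernatant absorbance at 540 nm gave % haemolysis; 0.5% ammonium chloride as positive control.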

MSSE 81388 CANWARD 2008 = assay type: cell-based, methicillin-susceptible S. epidermidis; settings: 24 h
Procedure, shortened: (§1)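 Minimum inhibitory concentrations come from CLSI macrobroth testing at 37°C for 24 hr, in cation-adjusted Mueller-Hinton broth inoculated at about 5 x 10^5 CFU/mL. Performed once.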

E. faecium ATCC 27270 = assay type: cell-based; settings: ATCC 27270, 24 h
Procedure, shortened: as §1

S. epidermidis = assay type: cell-based; settings: 24 h
Procedure, shortened: (§2)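 Twofold dilution series in CAMHB; inoculum ≈5 x 10^5 CFU/mL checked by colony counts; 24 hr, 37°C, ambient air; MIC by visual reading of tubes.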

MRSA ATCC 33592 = assay type: cell-based, methicillin-resistant S. aureus; settings: ATCC 33592, 24 h
Procedure, shortened: as §1

E.coli CAN-ICU 61714 = assay type: cell-based, Escherichia coli; settings: CAN-ICU 61714, 24 h
Procedure, shortened: as §1

E.coli ATCC 25922 = assay type: cell-based, Escherichia coli; settings: ATCC 25922, 24 h
Procedure, shortened: as §1

E.coli CAN-ICU 63074 = assay type: cell-based, Escherichia coli; settings: CAN-ICU 63074, 24 h
Procedure, shortened: as §1

MRSE CAN-ICU 61589 = assay type: cell-based, methicillin-resistant S. epidermidis; settings: CAN-ICU 61589, 24 h
Procedure, shortened: as §1

E. faecalis ATCC 29212 = assay type: cell-based, Enterococcus faecalis; settings: ATCC 29212, 24 h
Procedure, shortened: as §1

S.aureus ATCC 29213 = assay type: cell-based, Staphylococcus aureus; settings: ATCC 29213, 24 h
Procedure, shortened: as §1

[1] = system: S. maltophilia CAN-ICU 62584; assay type: cell-based, Stenotrophomonas maltophilia; settings: CAN-ICU 62584, 24 h
Procedure, shortened: as §1

[2] = system: A. baumannii CAN-ICU 63169; assay type: cell-based, Acinetobacter baumannii; settings: CAN-ICU 63169, 24 h
Procedure, shortened: as §1

[3] = system: P.aeruginosa CAN-ICU 62308; assay type: cell-based, Pseudomonas aeruginosa; settings: CAN-ICU 62308, 24 h
Procedure, shortened: as §1

P.aeruginosa ATCC 27853 = assay type: cell-based, Pseudomonas aeruginosa; settings: ATCC 27853, 24 h
Procedure, shortened: as §1

K.pneumoniae ATCC 13883 = assay type: cell-based, Klebsiella pneumoniae; settings: ATCC 13883, 24 h
Procedure, shortened: as §1

S.pneumoniae ATCC 49619 = assay type: cell-based, Streptococcus pneumoniae; settings: ATCC 49619, 24 h
Procedure, shortened: as §1

[4] = system: all three strains of E. coli; assay type: cell-based, Escherichia coli; settings: 24 h
Procedure, shortened: as §2

| MIC MSSE (MSSE 81388 CANWARD 2008) [µg/mL] | MIC MSSE in the presence of 4% bovine serum albumin (MSSE 81388 CANWARD 2008) [µg/mL] | MIC E. faecium (E. faecium ATCC 27270) [µg/mL] | MIC E. faecium in the presence of 4% bovine serum albumin (E. faecium ATCC 27270) [µg/mL] | MIC MRSA (MRSA ATCC 33592) [µg/mL] | MIC MRSA in the presence of 4% bovine serum albumin (MRSA ATCC 33592) [µg/mL] | MIC E.coli (E.coli CAN-ICU 61714) [µg/mL] | MIC E.coli in the presence of 4% bovine serum albumin (E.coli CAN-ICU 61714) [µg/mL] | MIC E.coli (E.coli ATCC 25922) [µg/mL] | MIC E.coli in the presence of 4% bovine serum albumin (E.coli ATCC 25922) [µg/mL] | MIC E.coli (E.coli CAN-ICU 63074) [µg/mL] | MIC E.coli in the presence of 4% bovine serum albumin (E.coli CAN-ICU 63074) [µg/mL] | MIC MRSE (MRSE CAN-ICU 61589) [µg/mL] | MIC MRSE in the presence of 4% bovine serum albumin (MRSE CAN-ICU 61589) [µg/mL] | MIC E. faecalis (E. faecalis ATCC 29212) [µg/mL] | MIC E. faecalis in the presence of 4% bovine serum albumin (E. faecalis ATCC 29212) [µg/mL] | MIC S.aureus (S.aureus ATCC 29213) [µg/mL] | MIC S.aureus in the presence of 4% bovine serum albumin (S.aureus ATCC 29213) [µg/mL] | MIC S. maltophilia [1] [µg/mL] | Structure (SMILES) | Percent haemolysis at 100µg/mL of compound (ovine erythrocytes) [%] | also measured |
| --- | --- | --- | --- | --- | --- | --- | --- | --- | --- | --- | --- | --- | --- | --- | --- | --- | --- | --- | --- | --- | --- |
| 8 (≈ 11.5 µM) | 128 | 16 (≈ 23 µM) | 256 | 16 (≈ 23 µM) | 256 | 32 (≈ 46 µM) | 256 | 32 (≈ 46 µM) | 256 | 32 (≈ 46 µM) | 256 | 8 (≈ 11.5 µM) | 128 | 16 (≈ 23 µM) | 256 | 16 (≈ 23 µM) | 128 | 64 (≈ 91.9 µM) | CCCCCCCCCCCCCCCCCCCC(=O)N(CCCCN)CC(=O)N(CCCCN)CC(=O)N(CCCCN)CC(N)=O [C20-NlysNlysNlys] | 68.29 | MIC against S. epidermidis with BSA (S. epidermidis): 128 µg/mL; MIC S. maltophilia in the presence of 4% bovine serum albumin [1]: 512 µg/mL; MIC A. baumannii [2]: 64 µg/mL (≈ 91.9 µM); MIC A. baumannii in the presence of 4% bovine serum albumin [2]: 512 µg/mL; MIC P.aeruginosa [3]: 64 µg/mL (≈ 91.9 µM); MIC P.aeruginosa in the presence of 4% bovine serum albumin [3]: 512 µg/mL; MIC P.aeruginosa (P.aeruginosa ATCC 27853): 128 µg/mL (≈ 184 µM); MIC P.aeruginosa in the presence of 4% bovine serum albumin (P.aeruginosa ATCC 27853): 512 µg/mL; MIC K.pneumoniae (K.pneumoniae ATCC 13883): 64 µg/mL (≈ 91.9 µM); MIC K.pneumoniae in the presence of 4% bovine serum albumin (K.pneumoniae ATCC 13883): 256 µg/mL; MIC S.pneumoniae (S.pneumoniae ATCC 49619): 64 µg/mL (≈ 91.9 µM); MIC S.pneumoniae in the presence of 4% bovine serum albumin (S.pneumoniae ATCC 49619): 512 µg/mL |
| 8 (≈ 14.1 µM) | 512 | 16 (≈ 28.1 µM) | 512 | 16 (≈ 28.1 µM) | 512 | 16 (≈ 28.1 µM) | 512 | 16 (≈ 28.1 µM) | 512 | 16 (≈ 28.1 µM) | 512 | 16 (≈ 28.1 µM) | 512 | 16 (≈ 28.1 µM) | 512 | 8 (≈ 14.1 µM) | 512 | 128 (≈ 225 µM) | CCCCCCCCCCCCCCCC(=O)N(CCCCN)CC(=O)NCC(=O)N(CCCCN)CC(N)=O [C16-NlysGNlys] (Palmitoyl-[Nlys]-Gly-[Nlys]-NH2) | 56.03 | MIC against all three strains of E. coli [4]: 16 µg/mL; MIC S. maltophilia in the presence of 4% bovine serum albumin [1]: >512 µg/mL; MIC A. baumannii [2]: 128 µg/mL (≈ 225 µM); MIC A. baumannii in the presence of 4% bovine serum albumin [2]: >512 µg/mL; MIC P.aeruginosa [3]: 128 µg/mL (≈ 225 µM); MIC P.aeruginosa in the presence of 4% bovine serum albumin [3]: >512 µg/mL; MIC P.aeruginosa (P.aeruginosa ATCC 27853): 64 µg/mL (≈ 113 µM); MIC P.aeruginosa in the presence of 4% bovine serum albumin (P.aeruginosa ATCC 27853): >512 µg/mL; MIC K.pneumoniae (K.pneumoniae ATCC 13883): 64 µg/mL (≈ 113 µM); MIC K.pneumoniae in the presence of 4% bovine serum albumin (K.pneumoniae ATCC 13883): >512 µg/mL; MIC S.pneumoniae (S.pneumoniae ATCC 49619): 128 µg/mL (≈ 225 µM); MIC S.pneumoniae in the presence of 4% bovine serum albumin (S.pneumoniae ATCC 49619): 512 µg/mL |
| 8 (≈ 12.3 µM) | 512 | 16 (≈ 24.5 µM) | 512 | 8 (≈ 12.3 µM) | 512 | 16 (≈ 24.5 µM) | 512 | 16 (≈ 24.5 µM) | 512 | 16 (≈ 24.5 µM) | 512 | 16 (≈ 24.5 µM) | 512 | 16 (≈ 24.5 µM) | 512 | 8 (≈ 12.3 µM) | 512 | 64 (≈ 98 µM) | CCCCCCCCCCCCCCCC(=O)N(CCCCNC(=N)N)CC(=O)NCC(=O)N(CCCCNC(=N)N)CC(N)=O [C16-NhargGNharg] | 61.06 | MIC against all three strains of E. coli [4]: 16 µg/mL; MIC S. maltophilia in the presence of 4% bovine serum albumin [1]: >512 µg/mL; MIC A. baumannii [2]: 128 µg/mL (≈ 196 µM); MIC A. baumannii in the presence of 4% bovine serum albumin [2]: >512 µg/mL; MIC P.aeruginosa [3]: 64 µg/mL (≈ 98 µM); MIC P.aeruginosa in the presence of 4% bovine serum albumin [3]: >512 µg/mL; MIC P.aeruginosa (P.aeruginosa ATCC 27853): 64 µg/mL (≈ 98 µM); MIC P.aeruginosa in the presence of 4% bovine serum albumin (P.aeruginosa ATCC 27853): >512 µg/mL; MIC K.pneumoniae (K.pneumoniae ATCC 13883): 64 µg/mL (≈ 98 µM); MIC K.pneumoniae in the presence of 4% bovine serum albumin (K.pneumoniae ATCC 13883): 512 µg/mL; MIC S.pneumoniae (S.pneumoniae ATCC 49619): 128 µg/mL (≈ 196 µM); MIC S.pneumoniae in the presence of 4% bovine serum albumin (S.pneumoniae ATCC 49619): 512 µg/mL |
